Test results: article PMC4590290 (Bioorganic chemistry, 2009)

Experiments:
GlAD [1] = target: T1, GlAD (Giardia duodenalis, UniProt Q27657); assay type: biochemical; details: read-out: KI; pH 7.5, 25 °C, 50 mM K+HEPES; covalent; irreversible, two-step inactivation; active site directed
GlAD [2] = target: T1, GlAD; assay: steady-state inhibition, glutamate dehydrogenase-coupled assay; assay type: biochemical

SMILES	KI (inactivation) (GlAD [1])	Ki (GlAD [2])
N[C@@H](CCSN=O)C(=O)O [S-nitroso-L-homocysteine]	40 ± 10 mM	
N=C(N)NCCCC[C@H](N)C(=O)O [L-homoarginine]		48 ± 6 mM
N=C(N)NCCCCN [agmatine]		50 ± 10 mM
